Assay results reported in paper PMC6018403 (Frontiers in Pharmacology, 2018).
Read-outs that look alike come from different tables or passages of the source. Values belong to the compound of their own block, whether it stands above or below them.

Key:
P-glycoprotein (P-gp) = target: T1, P-glycoprotein (P-gp) (Homo sapiens, UniProt P08183); assay: P-gp inhibitor and inducer experiments on Caco-2 cell monolayer; assay type: in vitro ADME; settings: added together with BER 5 μM; verapamil 5 μM; rifampicin 5, 20, 50 μM
T1 construct: host or cells: Caco-2 (human colon adenocarcinoma) monolayers, passages 24-35
Experimental: The final concentration of GQD, GQD−GC, and Huang-Lian water extracts were 32, 28, and 6 μg/mL, respectively. […]
containing glucose (25 mM) and HEPES (10 mM). The final concentration of berberine was 5 µM. The final concentration of DMSO was below 1% (v/v). […]
inducer of Caco-2 cells, respectively. For the inhibitor experiments, the Caco-2 cells were cultivated in DMEM until the 21st day. After removal of the medium, the cells were incubated for 30 minutes with HBSS containing 5 µM of verapamil. For the inducer experiments, the cells were cultivated in DMEM until the 18th day, and then […]
was removed on the 21st day, and the cells were then incubated for 30 min with HBSS.
Berberine and glycyrrhizic acid were added to the system following HBSS incubation.
For all bidirectional transport assays, samples (300 µL) were collected after 30, 60, 90, […]
with an equal volume of HBSS. The samples were freeze-dried and then dissolved in 300 µL of methanol. The solutions were filtered through 0.22-µm membranes before […]
3. Inhibitor and inducer experiments […]
respectively. For the inhibition experiments, Caco-2 cells were cultivated in DMEM until the 21st day. After removal of the medium, the cells were incubated for 30 minutes with HBSS containing verapamil (5 µM). For induction experiments, the cells were cultivated in DMEM until the 18th day, and then cultivated in DMEM […]
The medium was removed on the 21st day, and the cells were then incubated for 30 min with HBSS. Berberine and glycyrrhizic acid were added to the system following HBSS incubation.

db/db mice = assay: Evaluation of anti-diabetic effects in db/db mice; assay type: in vivo; settings: P < 0.05, metformin 100 mg/kg/d
Experimental: Eight-week-old male db/db mice (30–35 g) were used, and the details were described in Supplemental Data. The mice were randomly divided into eight groups. Mice were orally administered with metformin (100 mg/kg/d, n = 6), berberine (50 mg/kg/d, n = 6), glycyrrhizic acid (80 mg/kg/d, n = 6), berberine (50 mg/kg/d) combined with low-dose of glycyrrhizic acid (50 mg/kg/d, n = 6), berberine (50 mg/kg/d) combined with high-dose of glycyrrhizic acid (80 mg/kg/d, n = 6), berberine (50 mg/kg/d) combined with Gan-Cao (2.2 g/kg/d, n = 7), and GQD (18.2 g/kg/d, n = 7) for 4 weeks. For the control group, the […] were administered with an equal volume of water. On day 28, after fasted for 12 h, retro-orbital blood samples were collected, stand for 1 h, and then centrifuged (6,000 rpm, 4°C) for 20 min to obtain serum. Biochemical indicators such as blood glucose and insulin were determined on a Mindray BS-800 analyzer (Mindray Bio-Medical Electronics Co.).
Herbal materials and extracts.
The four component herbs, Puerariae Lobatae Radix (Ge-Gen, GG), Scutellariae Radix (Huang-Qin, HQ), Coptidis Rhizoma (Huang-Lian, HL), and Glycyrrhizae Radix et Rhizoma Praeparata cum Melle (Gan-Cao, GC) were purchased from Tianheng Pharmacy. GQD was prepared by decocting the four component herbs […]
of water for three times (1.5 h, 1.5 h, 0.5 h) to obtain the extracts, followed by a pre-extraction of Ge-Gen using 200 mL of water for 0.5 h. The decoctions were combined, filtered, and concentrated in vacuum at 50 °C. GQD-GC was prepared using the same procedure, except that Gan-Cao was removed from the formula. Final concentration of the GQD-GC extract was equivalent to 1.0 g of the crude drugs per mL. For single herb extracts, the herbs were decocted in 8-fold volume of water for three times (1.5 h, 1.5 h, 0.5 h) and then concentrated. […]
For anti-diabetic study, Eight-week-old male db/db mice (30–35 g) were purchased from Card Vince Laboratory animal Co., Ltd. The mice were bred in a cage (318 × 202 × 135 mm) in a breeding room at 25 °C, 60 ± 5% humidity, and a 12-h dark-light […]
On day 28, db/db mice were fasted for 12 h, and blood was collected and centrifuged to obtain serum for insulin and biochemical tests. After that, 150 µL of plasma was prepared by adding 150 µL of internal standard solution, 150 µL of methanol, and 300 µL of acetonitrile. The processing method was consistent with sample preparation for […]
3.1. Optimization of chromatographic separation
Different solvents (67% methanol, and 100% methanol) were compared to effectively extract both hydrophilic and hydrophobic compounds of GQD. […]
better extraction recovery for most compounds. […]

[1] = Multi-component pharmacokinetic study of GQD, GQD-GC and single herb extracts in rats (plasma, LC/MS/MS); assay type: in vivo, Sprague-Dawley rats; settings: for Cmax / Tmax / half-life / AUC(0-t): male, Sprague-Dawley, rat
How it was run: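 Male Sprague-Dawley rats (220–250 g, n = 10 per group) dosed orally with GQD, GQD-GC (1.0 g crude drug/mL) or single-herb decoctions. Plasma analytes quantified by LC/MS/MS in positive-ESI SRM mode. Cmax and Tmax taken from measured data, other parameters by non-compartmental or compartmental analysis; mean ± SD.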

[2] = in vivo, po, 3.54 g/kg, AUClast

T1 sequence (P08183 whole entry): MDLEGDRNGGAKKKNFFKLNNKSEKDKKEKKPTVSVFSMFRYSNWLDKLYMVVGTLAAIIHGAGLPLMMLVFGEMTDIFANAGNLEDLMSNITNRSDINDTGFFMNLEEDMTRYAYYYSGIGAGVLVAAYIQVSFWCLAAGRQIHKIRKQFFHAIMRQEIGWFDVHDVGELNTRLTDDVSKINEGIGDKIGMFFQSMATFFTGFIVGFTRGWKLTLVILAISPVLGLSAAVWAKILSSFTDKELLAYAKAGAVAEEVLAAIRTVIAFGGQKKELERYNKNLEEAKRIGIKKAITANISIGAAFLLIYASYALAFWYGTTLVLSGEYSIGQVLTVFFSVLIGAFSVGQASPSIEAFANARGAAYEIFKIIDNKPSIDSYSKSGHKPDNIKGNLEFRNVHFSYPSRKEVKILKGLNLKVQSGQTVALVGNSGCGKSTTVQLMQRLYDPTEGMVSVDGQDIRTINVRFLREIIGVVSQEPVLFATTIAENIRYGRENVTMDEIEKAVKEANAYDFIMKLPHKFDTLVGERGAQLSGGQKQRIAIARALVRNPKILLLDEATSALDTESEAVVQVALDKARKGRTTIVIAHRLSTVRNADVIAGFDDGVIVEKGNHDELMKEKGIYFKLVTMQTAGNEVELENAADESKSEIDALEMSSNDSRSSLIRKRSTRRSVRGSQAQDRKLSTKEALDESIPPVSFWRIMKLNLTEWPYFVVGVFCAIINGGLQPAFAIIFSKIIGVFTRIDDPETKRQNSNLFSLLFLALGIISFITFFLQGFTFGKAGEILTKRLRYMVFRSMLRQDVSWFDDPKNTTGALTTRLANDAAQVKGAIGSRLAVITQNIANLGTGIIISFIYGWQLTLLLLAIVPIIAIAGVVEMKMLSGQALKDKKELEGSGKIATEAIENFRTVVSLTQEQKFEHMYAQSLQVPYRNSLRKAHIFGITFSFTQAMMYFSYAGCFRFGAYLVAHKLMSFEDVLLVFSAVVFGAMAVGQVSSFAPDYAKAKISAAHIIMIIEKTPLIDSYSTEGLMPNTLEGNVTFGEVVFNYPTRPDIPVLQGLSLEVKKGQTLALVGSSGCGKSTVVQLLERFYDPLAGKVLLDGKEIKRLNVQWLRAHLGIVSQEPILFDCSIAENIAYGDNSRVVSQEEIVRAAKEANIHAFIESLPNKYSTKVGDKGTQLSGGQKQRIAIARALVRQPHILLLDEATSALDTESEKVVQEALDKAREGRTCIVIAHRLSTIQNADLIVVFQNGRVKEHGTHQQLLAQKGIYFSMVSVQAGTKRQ

Compound: CO[C@H]1/C=C/O[C@@]2(C)Oc3c(C)c(O)c4c(O)c(c(/C=N/N5CCN(C)CC5)c(O)c4c3C2=O)NC(=O)/C(C)=C\C=C\[C@H](C)[C@H](O)[C@@H](C)[C@@H](O)[C@@H](C)[C@H](OC(C)=O)[C@@H]1C [rifampicin, reference compound]
effect on the efflux of BER (P-glycoprotein (P-gp)): increased | effect on the influx of BER (P-glycoprotein (P-gp)): decreased

Compound: CN(C)C(=N)N=C(N)N [Metformin, metformin, reference compound]
4-week body weight (db/db mice): significant decrease

Compound: O=C(/C=C/c1ccc(O[C@@H]2O[C@H](CO)[C@@H](O)[C@H](O)[C@H]2O)cc1)c1ccc(O)cc1O [Compound 27, isoliquiritin]
AUC(0-t) ([1]; in vivo, po, 2.36 g/kg, GC (Gan-Cao) group: rats, oral extract 2.36 g/kg, plasma, read-out: AUClast): 0.00846 ± 0.00299 µg·h/mL | AUC(0-t) ([1]; in vivo, po, 18.9 g/kg, GQD group: rats, oral GQD extract 18.9 g/kg, plasma, read-out: AUClast): 0.0119 ± 0.0024 µg·h/mL | Cmax ([1]; in vivo, GC (Gan-Cao) group: rats, oral extract 2.36 g/kg, plasma, read-out: Cmax): 0.00217 ± 0.00098 µg/mL | half-life ([1]; in vivo, GC (Gan-Cao) group: rats, oral extract 2.36 g/kg, plasma, read-out: T1/2 (converted)): 0.91 ± 0.08 h | Tmax ([1]; in vivo, GC (Gan-Cao) group: rats, oral extract 2.36 g/kg, plasma, read-out: Tmax): 0.4 ± 1.23 h | Cmax ([1]; in vivo, GQD group: rats, oral GQD extract 18.9 g/kg, plasma, read-out: Cmax): 0.00259 ± 0.00243 µg/mL | half-life ([1]; in vivo, GQD group: rats, oral GQD extract 18.9 g/kg, plasma, read-out: T1/2 (converted)): 1.62 ± 0.33 h | Tmax ([1]; in vivo, GQD group: rats, oral GQD extract 18.9 g/kg, plasma, read-out: Tmax): 0.49 ± 1.01 h | plasma concentrations, effect of GQD compared with Gan-Cao ([1]; rats, oral): improved

Other lines, results leading:

Cmax ([1]; in vivo, po, 3.54 g/kg): 0.0041 ± 0.00044 µg/mL | Tmax ([1]; in vivo, po, 3.54 g/kg): 0.58 ± 0.23 h | half-life ([1]; in vivo, po, 3.54 g/kg): 4.87 ± 1.43 h | AUC(0-t) [1, 2]: 0.0413 ± 0.00134 µg·h/mL
Compound: O=c1cc(-c2ccccc2)oc2cc(O)cc(O)c12 [Compound 18, chrysin]

Cmax ([1]; in vivo, po, 3.54 g/kg): 0.0436 ± 0.00304 µg/mL | Tmax ([1]; in vivo, po, 3.54 g/kg): 0.08 ± 0.53 h | half-life ([1]; in vivo, po, 3.54 g/kg): 5.29 ± 2.33 h | AUC(0-t) [1, 2]: 0.351 ± 0.174 µg·h/mL
Compound: COc1c(O)cc2oc(-c3ccccc3)cc(=O)c2c1O [Compound 9, oroxylin A]

AUC(0-t) ([1]; plasma, po, 3.54 g/kg, HQ (Huang-Qin) group: rats, oral extract 3.54 g/kg, plasma, read-out: AUClast): 11 ± 2.53 µg·h/mL | AUC(0-t) ([1]; plasma, po, 3.54 g/kg, Huang-Qin group: rats, oral 3.54 g/kg, plasma, read-out: AUClast): 11 ± 2.53 µg·h/mL | AUC(0-t) ([1]; plasma, po, 16.5 g/kg, GQD-GC group (GQD without Gan-Cao): rats, oral 16.5 g/kg, plasma, read-out: AUClast): 6.03 ± 0.272 µg·h/mL | AUC(0-t) ([1]; plasma, po, 18.9 g/kg, GQD group: rats, oral GQD extract 18.9 g/kg, plasma, read-out: AUClast): 5.27 ± 0.987 µg·h/mL | Cmax ([1]; GQD group: rats, oral GQD extract 18.9 g/kg, plasma, read-out: Cmax): 0.379 ± 0.0985 µg/mL | half-life ([1]; GQD group: rats, oral GQD extract 18.9 g/kg, plasma, read-out: T1/2 (converted)): 4.88 ± 2.87 h | Tmax ([1]; GQD group: rats, oral GQD extract 18.9 g/kg, plasma, read-out: Tmax): 7.05 ± 1.23 h | Cmax ([1]; GQD-GC group (GQD without Gan-Cao): rats, oral 16.5 g/kg, plasma, read-out: Cmax): 0.359 ± 0.0343 µg/mL | half-life ([1]; GQD-GC group (GQD without Gan-Cao): rats, oral 16.5 g/kg, plasma, read-out: T1/2 (converted)): 4.28 ± 1.63 h | Tmax ([1]; GQD-GC group (GQD without Gan-Cao): rats, oral 16.5 g/kg, plasma, read-out: Tmax): 6.17 ± 8.34 h | Cmax ([1]; HQ (Huang-Qin) group: rats, oral extract 3.54 g/kg, plasma, read-out: Cmax): 0.547 ± 0.0738 µg/mL | half-life ([1]; HQ (Huang-Qin) group: rats, oral extract 3.54 g/kg, plasma, read-out: T1/2 (converted)): 5.1 ± 0.33 h | Tmax ([1]; HQ (Huang-Qin) group: rats, oral extract 3.54 g/kg, plasma, read-out: Tmax): 7.36 ± 0.08 h | decrease of Cmax in the GQD group compared with the Huang-Qin group ([1]; rats, oral, GQD vs Huang-Qin): at least 30%
Compound: O=C(O)[C@H]1O[C@@H](Oc2cc(O)c3c(=O)cc(-c4ccccc4)oc3c2O)[C@H](O)[C@@H](O)[C@@H]1O [Compound 14, norwogonin 7-O-glucuronide]
